{"source": "ChEMBL document CHEMBL5584231", "about": "“Rational design of a new short anticancer peptide with good potential for cancer treatment” (Eur J Med Chem, 2024)", "key": {"MCF7 [1]": {"system": "MCF7", "assay": "Cytotoxicity against human MCF7 cells assessed as cell killing at 1 times IC50 measured within 12 hrs by MTT assay", "type": "functional, cell-based"}, "MCF7 [2]": {"system": "MCF7", "assay": "Cytotoxicity against human MCF7 cells assessed as cell killing at 1 times IC50 measured at 24 hrs by MTT assay", "type": "functional, cell-based"}, "MCF7 [3]": {"system": "MCF7", "assay": "Cytotoxicity against human MCF7 cells assessed as cell viability at 2 times IC50 measured within 8 hrs by MTT assay", "type": "functional, cell-based"}, "MCF7 [4]": {"system": "MCF7", "assay": "Cytotoxicity against human MCF7 cells assessed as cell survival at 2 times IC50 incubated for 12 hrs by MTT assay relative to control", "type": "functional"}, "MCF7 [5]": {"system": "MCF7", "assay": "Cytotoxicity against human MCF7 cells assessed as cell survival at 2 times IC50 incubated for 24 hrs by MTT assay relative to control", "type": "functional"}, "Cell membrane [6]": {"system": "Cell membrane", "assay": "Disruption of cell membrane in human MCF7 cells assessed as LDH release at 2.5 to 40 uM incubated for 1 hr by fluorescence based microplate reader analysis", "type": "cell membranes", "conditions": "dose 2.5-40 µM"}, "Cell membrane [7]": {"system": "Cell membrane", "assay": "Induction of morphological changes in cell membrane of human MCF7 cells assessed as effect on normal cell shape with intact membrane surface at 1 to 2 times IC50 incubated for 1 hr by SEM analysis", "type": "cell membranes"}, "Cell membrane [8]": {"system": "Cell membrane", "assay": "Disruption of cell membrane integrity in human MCF7 cells assessed as increase in PI fluorescence at 1 times IC50 measured after 0 to 120 mins by laser confocal scanning microscopic analysis", "type": "cell membranes", "conditions": "time 0-120 min"}, "Cell membrane [9]": {"system": "Cell membrane", "assay": "Disruption of cell membrane integrity in human MCF7 cells assessed as increase in PI fluorescence at 2 times IC50 measured after 0 to 120 mins by laser confocal scanning microscopic analysis", "type": "cell membranes", "conditions": "time 0-120 min"}, "Cell membrane [10]": {"system": "Cell membrane", "assay": "Disruption of cell membrane integrity in human MCF7 cells assessed as increase in PI fluorescence at 1 to 2 times IC50 measured after 1 hr by laser confocal scanning microscopic analysis", "type": "cell membranes"}, "Cell membrane [11]": {"system": "Cell membrane", "assay": "Induction of cell membrane damage in human MCF7 cells assessed as protein leakage at 1 to 2 times IC50 measured after 0.5 to 6 hrs by UV based analysis", "type": "cell membranes", "conditions": "time 0.5-6 hrs"}, "Cell membrane [12]": {"system": "Cell membrane", "assay": "Induction of cell membrane damage in human MCF7 cells assessed as nucleic acid leakage at 1 to 2 times IC50 measured after 0.5 to 6 hrs by UV based analysis", "type": "cell membranes", "conditions": "time 0.5-6 hrs"}, "MCF7 [13]": {"system": "MCF7", "assay": "Effect on cell cycle progression in human MCF7 cells at 1 times IC50 measured after 1 hr by PI/RNase staining based flow cytometry analysis", "type": "functional"}, "MCF7 [14]": {"system": "MCF7", "assay": "Induction of cell cycle arrest at G2/M phase in human MCF7 cells assessed as increase in cells at G2/M phase at 1 times IC50 measured after 24 hrs by PI/RNase staining based flow cytometry analysis", "type": "functional"}, "MCF7 [15]": {"system": "MCF7", "assay": "Induction of apoptosis in human MCF7 cells assessed as live cells at 1 times IC50 measured after 24 hrs by Annexin V-FITC staining based flow cytometry analysis (reference value: 92%)", "type": "functional"}, "MCF7 [16]": {"system": "MCF7", "assay": "Induction of apoptosis in human MCF7 cells assessed as early apoptotic cells at 1 times IC50 measured after 24 hrs by Annexin V-FITC staining based flow cytometry analysis (reference value: 0.014%)", "type": "functional"}, "MCF7 [17]": {"system": "MCF7", "assay": "Induction of apoptosis in human MCF7 cells assessed as late apoptotic cells at 1 times IC50 measured after 24 hrs by Annexin V-FITC staining based flow cytometry analysis (reference value: 1.60%)", "type": "functional"}, "MCF7 [18]": {"system": "MCF7", "assay": "Induction of apoptosis in human MCF7 cells assessed as dead cells at 1 times IC50 measured after 24 hrs by Annexin V-FITC staining based flow cytometry analysis (reference value: 6.41%)", "type": "functional"}, "MCF7 [19]": {"system": "MCF7", "assay": "Induction of apoptosis in human MCF7 cells assessed as increase in intracellular ROS generation at 1 times IC50 measured after 0 to 360 mins by DCFH-DA staining based analysis", "type": "functional, cell-based", "conditions": "time 0-360 min"}, "MCF7 [20]": {"system": "MCF7", "assay": "Antimigratory activity in human MCF7 cells assessed as reduction in cell migration at 1 times IC50 measured after 24 hrs by scratch-wound healing assay", "type": "functional, cell-based"}, "MCF7 [21]": {"system": "MCF7", "assay": "Anti-invasion activity in human MCF7 cells assessed as reduction in number of passing cells on polycarbonate membrane at 1 times IC50 measured after 24 hrs by crystal violet staining based transwell assay", "type": "functional, cell-based"}, "4T1 [22]": {"system": "4T1", "assay": "Antitumor activity against mouse 4T1 cells implanted in female Balb/c mouse assessed as reduction in tumor growth at 12 micromol/kg, ip administered every other day for 2 weeks and measured every 2 days", "type": "functional, organism-based", "conditions": "dose 12.0 µmol/kg"}, "4T1 [23]": {"system": "4T1", "assay": "Antitumor activity against mouse 4T1 cells implanted in female Balb/c mouse assessed as reduction in tumor weight at 12 micromol/kg, ip administered every other day for 2 weeks and measured every 2 days relative to control", "type": "functional", "set-up": "scale not given: the % may be the effect or the level left", "conditions": "dose 12 µmol/kg"}, "[24]": {"assay": "Toxicity in female Balb/c mouse implanted with mouse 4T1 cells assessed as reduction in body weight at 12 micromol/kg, ip administered every other day for 2 weeks and measured every 2 days", "type": "organism-based", "conditions": "in vivo, 336 h, dose 12 µmol/kg"}, "[25]": {"assay": "Toxicity in female Balb/c mouse implanted with mouse 4T1 cells assessed as animal death at 12 micromol/kg, ip administered every other day for 2 weeks", "type": "organism-based", "conditions": "in vivo, 336 h, dose 12 µmol/kg"}, "[26]": {"assay": "Toxicity in female Balb/c mouse implanted with mouse 4T1 cells assessed as pathological changes in heart at 12 micromol/kg, ip administered every other day for 2 weeks by H and E staining based analysis", "type": "organism-based", "conditions": "in vivo, 336 h, dose 12 µmol/kg"}, "[27]": {"assay": "Toxicity in female Balb/c mouse implanted with mouse 4T1 cells assessed as pathological changes in liver at 12 micromol/kg, ip administered every other day for 2 weeks by H and E staining based analysis", "type": "organism-based", "conditions": "in vivo, 336 h, dose 12 µmol/kg"}, "[28]": {"assay": "Toxicity in female Balb/c mouse implanted with mouse 4T1 cells assessed as pathological changes in spleen at 12 micromol/kg, ip administered every other day for 2 weeks by H and E staining based analysis", "type": "organism-based", "conditions": "in vivo, 336 h, dose 12 µmol/kg"}, "[29]": {"assay": "Toxicity in female Balb/c mouse implanted with mouse 4T1 cells assessed as pathological changes in lung at 12 micromol/kg, ip administered every other day for 2 weeks by H and E staining based analysis", "type": "organism-based", "conditions": "in vivo, 336 h, dose 12 µmol/kg"}, "[30]": {"assay": "Toxicity in female Balb/c mouse implanted with mouse 4T1 cells assessed as pathological changes in kidney at 12 micromol/kg, ip administered every other day for 2 weeks by H and E staining based analysis", "type": "organism-based", "conditions": "in vivo, 336 h, dose 12 µmol/kg"}, "4T1 [31]": {"system": "4T1", "assay": "Antitumor activity against mouse 4T1 cells implanted in female Balb/c mouse assessed as increase in tumor cell apoptosis at 12 micromol/kg, ip administered every other day for 2 weeks by H and E staining based analysis", "type": "functional, organism-based", "conditions": "dose 12.0 µmol/kg"}, "4T1 [32]": {"system": "4T1", "assay": "Antitumor activity against mouse 4T1 cells implanted in female Balb/c mouse assessed as increase in tumor cell necrosis at 12 micromol/kg, ip administered every other day for 2 weeks by H and E staining based analysis", "type": "functional, organism-based", "conditions": "dose 12.0 µmol/kg"}, "[33]": {"assay": "Acute toxicity in female Balb/c mouse assessed as reduction in survival rate at 30 mg/kg, ip administered as single dose and measured for 7 days", "type": "organism-based", "conditions": "in vivo, 168 h, time 7 day"}, "[34]": {"assay": "Acute toxicity in female Balb/c mouse assessed as reduction in survival rate at 38 to 60 mg/kg, ip administered as single dose and measured for 7 days", "type": "organism-based", "conditions": "in vivo, 168 h, dose 38-60 mg/kg, time 7 day"}, "[35]": {"assay": "Acute toxicity in ip dosed female Balb/c mouse administered as single dose and measured for 7 days by karber method", "type": "organism-based", "conditions": "in vivo, time 7 day"}, "[36]": {"assay": "Acute toxicity in female Balb/c mouse assessed as heart damage at approximately LD50 administered as single ip dose by H and E staining based analysis", "type": "organism-based", "conditions": "in vivo"}, "[37]": {"assay": "Acute toxicity in female Balb/c mouse assessed as shrinking cytoplasm in kidney at approximately LD50 administered as single ip dose by H and E staining based analysis", "type": "organism-based", "conditions": "in vivo"}, "[38]": {"assay": "Acute toxicity in female Balb/c mouse assessed as necrosis in kidney at approximately LD50 administered as single ip dose by H and E staining based analysis", "type": "organism-based", "conditions": "in vivo"}}, "note": "Calls of active or inactive are those of the source. The calls are words filed in the database; no cut-off is given here."}
{"molecule": "CC(=O)O[C@H]1C(=O)[C@@]2(C)[C@H]([C@H](OC(=O)c3ccccc3)[C@]3(O)C[C@H](OC(=O)[C@H](O)[C@@H](NC(=O)c4ccccc4)c4ccccc4)C(C)=C1C3(C)C)[C@]1(OC(C)=O)CO[C@@H]1C[C@@H]2O", "note": "[PACLITAXEL]", "values": [{"measurement": "Activity", "setting": "MCF7 [1]", "value": "inactive"}, {"measurement": "Activity", "setting": "MCF7 [2]", "value": "Active"}, {"measurement": "Activity", "setting": "MCF7 [3]", "value": "inactive"}, {"measurement": "Survival", "setting": "MCF7 [4]", "value": "~23.8", "unit": "%"}, {"measurement": "Survival", "setting": "MCF7 [5]", "value": "~9.7", "unit": "%"}, {"measurement": "Activity", "setting": "Cell membrane [6]", "value": "inactive"}, {"measurement": "Activity", "setting": "Cell membrane [7]", "value": "inactive"}, {"measurement": "Activity", "setting": "Cell membrane [8]", "value": "inactive"}, {"measurement": "Activity", "setting": "Cell membrane [9]", "value": "inactive"}, {"measurement": "Activity", "setting": "Cell membrane [10]", "value": "inactive"}, {"measurement": "Activity", "setting": "Cell membrane [11]", "value": "inactive"}, {"measurement": "Activity", "setting": "Cell membrane [12]", "value": "inactive"}, {"measurement": "Activity", "setting": "MCF7 [13]", "value": "inactive"}, {"measurement": "Activity", "setting": "MCF7 [14]", "value": "Active"}, {"measurement": "Activity", "setting": "MCF7 [15]", "value": 30.2, "unit": "%"}, {"measurement": "Activity", "setting": "MCF7 [16]", "value": 48.4, "unit": "%"}, {"measurement": "Activity", "setting": "MCF7 [17]", "value": 20.3, "unit": "%"}, {"measurement": "Activity", "setting": "MCF7 [18]", "value": 1.13, "unit": "%"}, {"measurement": "Activity", "setting": "MCF7 [19]", "value": "Active"}, {"measurement": "Activity", "setting": "MCF7 [20]", "value": "Active"}, {"measurement": "Activity", "setting": "MCF7 [21]", "value": "Active"}, {"measurement": "Activity", "setting": "4T1 [22]", "value": "Active"}, {"measurement": "Activity", "setting": "4T1 [23]", "value": 21.6, "unit": "%"}, {"measurement": "Activity", "setting": "[24]", "value": "Non-Toxic"}, {"measurement": "Activity", "setting": "[25]", "value": "Non-Toxic"}, {"measurement": "Activity", "setting": "[26]", "value": "Non-Toxic"}, {"measurement": "Activity", "setting": "[27]", "value": "Non-Toxic"}, {"measurement": "Activity", "setting": "[28]", "value": "Non-Toxic"}, {"measurement": "Activity", "setting": "[29]", "value": "Non-Toxic"}, {"measurement": "Activity", "setting": "[30]", "value": "Non-Toxic"}, {"measurement": "Activity", "setting": "4T1 [31]", "value": "Active"}, {"measurement": "Activity", "setting": "4T1 [32]", "value": "Active"}, {"measurement": "Activity", "setting": "[33]", "value": "Non-Toxic"}, {"measurement": "Activity", "setting": "[34]", "value": "Toxic"}, {"measurement": "LD50 at 168 h", "setting": "[35]", "value": 39.7, "unit": "mg/kg"}, {"measurement": "Activity", "setting": "[36]", "value": "Non-Toxic"}, {"measurement": "Activity", "setting": "[37]", "value": "Toxic"}, {"measurement": "Activity", "setting": "[38]", "value": "Toxic"}]}
